Laboratory results taken from ChEMBL document CHEMBL1201862, “PubChem BioAssay data set” (2004).
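Protocol summary: plate cells (96-well), add compound at 5 concentrations, incubate 48 h, interpolate endpoints linearly. Here, GI50 denotes the concentration required for 50% inhibition of growth.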 Active and inactive are the calls of the source. No stated cut-off is given here; in the data, active = GI50 up to about 1.1 µM and inactive = higher.

What was measured:
Test in all cases: inhibition of tumour cell growth, NCI panel, 48 h
A549 = tested on: A549
COLO 205 = tested on: COLO 205
DU-145 = tested on: DU-145
HCC 2998 = tested on: HCC 2998
HCT-15 = tested on: HCT-15
K562 = tested on: K562
MCF7 = tested on: MCF7
MOLT-4 = tested on: MOLT-4
NCI-H23 = tested on: NCI-H23
NCI-H460 = tested on: NCI-H460
NCI-H522 = tested on: NCI-H522
OVCAR-4 = tested on: OVCAR-4
OVCAR-8 = tested on: OVCAR-8
RPMI-8226 = tested on: RPMI-8226
SF-268 = tested on: SF-268
SK-OV-3 = tested on: SK-OV-3
T47D = tested on: T47D
UACC-62 = tested on: UACC-62
OVCAR-3 = tested on: OVCAR-3
BT-549 = tested on: BT-549

Compound	GI50 (A549)	GI50 (COLO 205)	GI50 (DU-145)	GI50 (HCC 2998)	GI50 (HCT-15) [µM]	GI50 (K562)	GI50 (MCF7)	GI50 (MOLT-4)	GI50 (NCI-H23)	GI50 (NCI-H460)	GI50 (NCI-H522)	GI50 (OVCAR-4)	GI50 (OVCAR-8)	GI50 (RPMI-8226)	GI50 (SF-268)	GI50 (SK-OV-3)	GI50 (T47D)	GI50 (UACC-62)	GI50 (OVCAR-3)	GI50 (BT-549)
CC#CCCN(CC#N)Cc1ccccc1	> 100 µM (inactive)	> 100 µM (inactive)	> 100 µM (inactive)	> 100 µM (inactive)	> 100	> 100 µM (inactive)	20.1 µM (inactive)	> 100 µM (inactive)	> 100 µM (inactive)	> 100 µM (inactive)	> 100 µM (inactive)	> 100 µM (inactive)	> 100 µM (inactive)	> 100 µM (inactive)	> 100 µM (inactive)	> 100 µM (inactive)	> 100 µM (inactive)	18.1 µM (inactive)	–	–
CCOC(=O)c1ccc(Nc2c3c(nc4ccccc24)CCCC3)cc1	> 38.6 µM (inactive)	> 100 µM (inactive)	> 57.9 µM (inactive)	> 56.4 µM (inactive)	7.13	3.74 µM (inactive)	12 µM (inactive)	3.22 µM (inactive)	> 47.9 µM (inactive)	43.2 µM (inactive)	3.62 µM (inactive)	46.7 µM (inactive)	44.7 µM (inactive)	> 100 µM (inactive)	76.2 µM (inactive)	> 66.2 µM (inactive)	8.51 µM (inactive)	30.3 µM (inactive)	> 100 µM (inactive)	–
CC(=O)O[C@H]1C[C@@H](OC(C)=O)[C@@](C)(O)[C@@H]2[C@@H](OC(C)=O)[C@@]3(O)[C@H](/C=C(/CO)[C@H]4O[C@H]4[C@@H](OC(C)=O)[C@@]12C)OC(=O)[C@@H]3C	10.4 µM (inactive)	9.35 µM (inactive)	5.27 µM (inactive)	8.91 µM (inactive)	9.1	17.7 µM (inactive)	–	16.4 µM (inactive)	16.8 µM (inactive)	8.13 µM (inactive)	5.42 µM (inactive)	> 25 µM (inactive)	12.7 µM (inactive)	9.86 µM (inactive)	19.1 µM (inactive)	11.9 µM (inactive)	22.4 µM (inactive)	7.64 µM (inactive)	5.51 µM (inactive)	> 25 µM (inactive)
CNC(=O)N1CN(c2ccccc2)C2(CCN(CCCC(=O)c3ccc(F)cc3)CC2)C1=O	45.1 µM (inactive)	4.56 µM (inactive)	11.3 µM (inactive)	7.82 µM (inactive)	15.5	19.5 µM (inactive)	3.62 µM (inactive)	4.57 µM (inactive)	23.4 µM (inactive)	–	24.9 µM (inactive)	–	31.5 µM (inactive)	14.1 µM (inactive)	39.1 µM (inactive)	31.8 µM (inactive)	4.98 µM (inactive)	18.7 µM (inactive)	18.4 µM (inactive)	–
O=C(COc1ccc(Cl)cc1Cl)N/N=C/C=C/c1ccc([N+](=O)[O-])o1	8.24 µM (inactive)	–	–	–	3.37	4.43 µM (inactive)	4.14 µM (inactive)	2.28 µM (inactive)	3.18 µM (inactive)	8.39 µM (inactive)	1.04 µM (active)	4.35 µM (inactive)	3.44 µM (inactive)	2.26 µM (inactive)	29.4 µM (inactive)	14.6 µM (inactive)	> 100 µM (inactive)	3.82 µM (inactive)	4.59 µM (inactive)	12.1 µM (inactive)
Clc1ccc(C2=NNC(c3cccc(Cl)c3)C2)cc1 (stereo not drawn)	23.2 µM (inactive)	15.9 µM (inactive)	36.9 µM (inactive)	–	–	37.4 µM (inactive)	17.4 µM (inactive)	27.1 µM (inactive)	25.8 µM (inactive)	28.5 µM (inactive)	2.98 µM (inactive)	32.8 µM (inactive)	–	17.1 µM (inactive)	29.3 µM (inactive)	22 µM (inactive)	44.6 µM (inactive)	28.8 µM (inactive)	28.6 µM (inactive)	–
COc1ccc2c(c1)CC[C@@H]1[C@@H]2CC[C@]2(C)C(=O)/C(=C/c3ccc(N(C)C)cc3)C[C@@H]12	41.9 µM (inactive)	> 100 µM (inactive)	> 100 µM (inactive)	> 100 µM (inactive)	> 100	–	–	> 100 µM (inactive)	33 µM (inactive)	39.8 µM (inactive)	–	37.2 µM (inactive)	–	> 100 µM (inactive)	32.4 µM (inactive)	53.7 µM (inactive)	44.1 µM (inactive)	32.6 µM (inactive)	23 µM (inactive)	29.1 µM (inactive)
O=C(O)c1ccccc1/C=N/N=C1NCCCCN1	> 100 µM (inactive)	> 100 µM (inactive)	–	> 100 µM (inactive)	> 100	> 100 µM (inactive)	> 100 µM (inactive)	> 100 µM (inactive)	> 100 µM (inactive)	> 100 µM (inactive)	90.8 µM (inactive)	> 100 µM (inactive)	> 100 µM (inactive)	> 100 µM (inactive)	> 100 µM (inactive)	> 100 µM (inactive)	> 100 µM (inactive)	> 100 µM (inactive)	> 100 µM (inactive)	> 100 µM (inactive)
COc1ccc(/C=C2\CCC(C)(CN(C)C)C2=O)cc1Br (stereo not drawn)	38.4 µM (inactive)	18.5 µM (inactive)	50.4 µM (inactive)	20.8 µM (inactive)	16.9	27.9 µM (inactive)	13.5 µM (inactive)	20.3 µM (inactive)	28.8 µM (inactive)	26.7 µM (inactive)	17 µM (inactive)	18.9 µM (inactive)	17 µM (inactive)	19.1 µM (inactive)	16.5 µM (inactive)	30.1 µM (inactive)	–	4.03 µM (inactive)	18.2 µM (inactive)	16 µM (inactive)
COC(=O)C1Cc2c([nH]c3ccccc23)-c2[nH]c3ccccc3c2CC(NC(C)=O)C(=O)N2CCCC2C(=O)N1 (stereo not drawn)	> 100 µM (inactive)	53.1 µM (inactive)	> 100 µM (inactive)	> 100 µM (inactive)	> 100	> 100 µM (inactive)	> 100 µM (inactive)	66.7 µM (inactive)	> 100 µM (inactive)	> 100 µM (inactive)	36.1 µM (inactive)	> 100 µM (inactive)	> 100 µM (inactive)	56.8 µM (inactive)	> 100 µM (inactive)	> 100 µM (inactive)	> 100 µM (inactive)	> 100 µM (inactive)	> 100 µM (inactive)	–
Nc1nc(N)c2ncn(-c3ccc(Cl)cc3)c2n1	37 µM (inactive)	75.5 µM (inactive)	25 µM (inactive)	30.2 µM (inactive)	24.8	–	41.3 µM (inactive)	–	61 µM (inactive)	–	28.6 µM (inactive)	80.5 µM (inactive)	30.1 µM (inactive)	–	–	20.5 µM (inactive)	25.5 µM (inactive)	29.7 µM (inactive)	40.6 µM (inactive)	–
CC1(C)CC(=O)C(C(=O)C(=O)NC2=C(Cl)C(=O)c3ccccc3C2=O)C(=O)C1	> 100 µM (inactive)	38.7 µM (inactive)	–	45.4 µM (inactive)	46.5	32 µM (inactive)	–	20.1 µM (inactive)	> 100 µM (inactive)	51.2 µM (inactive)	24 µM (inactive)	63.5 µM (inactive)	> 100 µM (inactive)	34.8 µM (inactive)	> 100 µM (inactive)	> 100 µM (inactive)	–	45.5 µM (inactive)	58.6 µM (inactive)	–
O=C(C1=CCC2(CC1)OCCO2)N(Cc1ccccc1)c1ccccc1I	28 µM (inactive)	17.7 µM (inactive)	32.8 µM (inactive)	16.8 µM (inactive)	23	43.2 µM (inactive)	26.4 µM (inactive)	63.8 µM (inactive)	19.7 µM (inactive)	18.9 µM (inactive)	–	14.9 µM (inactive)	16.4 µM (inactive)	24.4 µM (inactive)	13.4 µM (inactive)	32.1 µM (inactive)	18.4 µM (inactive)	13.5 µM (inactive)	21.3 µM (inactive)	–
COc1cccc2c1C(=O)C1(O)CCCCC21 (stereo not drawn)	> 100 µM (inactive)	> 100 µM (inactive)	–	> 100 µM (inactive)	> 100	> 100 µM (inactive)	–	> 100 µM (inactive)	> 100 µM (inactive)	> 100 µM (inactive)	> 100 µM (inactive)	> 100 µM (inactive)	> 100 µM (inactive)	> 100 µM (inactive)	> 100 µM (inactive)	> 100 µM (inactive)	–	> 100 µM (inactive)	> 100 µM (inactive)	–
CCC12CN(C(=O)OC)C3C(Br)C1CCC(=O)C32 (stereo not drawn)	> 100 µM (inactive)	> 100 µM (inactive)	> 100 µM (inactive)	> 100 µM (inactive)	> 100	> 100 µM (inactive)	> 100 µM (inactive)	> 100 µM (inactive)	> 100 µM (inactive)	> 100 µM (inactive)	84.1 µM (inactive)	> 100 µM (inactive)	> 100 µM (inactive)	> 100 µM (inactive)	> 100 µM (inactive)	> 100 µM (inactive)	> 100 µM (inactive)	> 100 µM (inactive)	> 100 µM (inactive)	–
CC(C)c1ccc2c(c1)CCC1C(C)(C)[C@@H](O)CC[C@]21C (stereo partly drawn)	30.6 µM (inactive)	18.6 µM (inactive)	–	24.8 µM (inactive)	32.7	24.9 µM (inactive)	–	22.1 µM (inactive)	29.8 µM (inactive)	17.9 µM (inactive)	25 µM (inactive)	56.8 µM (inactive)	36.4 µM (inactive)	21.2 µM (inactive)	39 µM (inactive)	68.7 µM (inactive)	–	42.3 µM (inactive)	34 µM (inactive)	–
